Entries after “also recorded” stand apart in the source; their conditions may differ.
What was measured:
[1] = test system: IRF5; test: IRF5 positive nuclei, immunofluorescence of heart sections; assay type: in vivo, mouse; conditions: 4F 1 mg/kg/d, sc; Tsk−/+ heart sections, confocal; ratio IRF5 labeled nuclei to total nuclei; p<0.05, n = 3
Text: (§1) All experimental procedures and protocols involving mice were reviewed and approved by the Institutional Animal Care and Use Committee (IACUC) of the Medical College of Wisconsin (AUA#512). They also conformed to the rules in the Guiding Principles in the Care and Use of Animals published by the American Physiologic Society and the Guide for the Care and Use of Laboratory Animals published by OLAW. Male Tsk^−/+ and C57Bl/6J mice (6–8 weeks of age) were purchased from Jackson Laboratories (Bar Harbor, ME). Three groups of mice were studied; C57Bl/6J, Tsk^−/+, and Tsk^−/+ mice treated with 4F (1 mg/kg/d, sc) as published previously.
Hearts were harvested from mice, flash frozen and imbedded in OCT and cut into 10 µm sections. Frozen sections were fixed for 10 minutes in PBS containing 1% paraformaldehyde. Cell membranes were permeabilized by incubation in PBS containing 0.5% Triton-X for 5 min at room temperature. The sections were washed once in PBS (5 min) and incubated in PBS containing mouse monoclonal anti-IRF5 antibody (Santa Cruz, 1∶50 concentration) for 30 min at 37°C. Unbound anti-IRF5 antibody was washed free from the sections with PBS and the slides incubated with the appropriate Alexa 488-conjugated secondary antibody (Invitrogen, Carlsbad, CA) for 30 min at 37°C. […] Sections were mounted in aqueous mounting media and analyzed by confocal microscopy, [17].

[2] = test system: Tsk−/+ mice; test: Transthoracic echocardiography, posterior wall thickness / heart function; assay type: in vivo, mouse
Text: as §1
Tsk^−/+ and C57BL/6J mice (n = 6) were anesthetized by isoflurane inhalation (1.50%) and oxygen. They were place on a warming platform supine position. A VisualSonics Vevo 770 high-resolution imaging system (Toronto, Canada) equipped with a 30-MHz transducer (Scanhead RMV 707) was used to perform the transthoracic echocardiography. Two-dimensional guided M-mode LV dimensions were measured and posterior wall thickness was analyzed.

Substance: Ac-DWFKAFYDKVAEKFKEAF-NH2 [4F]
- IRF5 nuclear localization / IRF5 positive nuclei [1]: decreased both measurements in Tsk^−/+ hearts; also recorded: marked decreases in IRF-5 nuclear localization; also recorded: significantly more nuclear labeling in Tsk^−/+ hearts compared to C57BL/6J hearts and hearts from Tsk^−/+ mice treated with 4F; also recorded: decrease IRF5 expression, activation, nuclear translocation
- posterior wall thickness ([2]; 4F 1 mg/kg/d, sc, 6–8 weeks, 4F-treated Tsk−/+ vs untreated Tsk−/+ mice, p<0.05, n = 6, M-mode echocardiography, isoflurane): significantly increased in Tsk^−/+ compared to C57Bl/6J (control) and Tsk^−/+ mice with 4F treatment; also recorded: significantly higher in the Tsk^−/+ mice compared to C57Bl/6J and Tsk^−/+ mice treated with 4F; also recorded: significantly improved
- onset of heart failure ([2]; 4F treatment of Tsk−/+ mice (Figure 1)): appear to delay the onset of heart failure in Tsk^−/+ mice

Reference: PMC3522636, “4F Decreases IRF5 Expression and Activation in Hearts of Tight Skin Mice” (PLoS ONE, 2012)
